This passage reports IC50 and MIC results from ChEMBL document CHEMBL1255553, “Unusual antimalarial meroditerpenes from tropical red macroalgae” (Bioorg Med Chem Lett, 2010).

Molecules are shown by their SMILES. Converted amounts (≈) assume the structure as drawn.

A word on the IC50: it is the concentration that inhibits the measured activity by half. What is called MIC is the smallest concentration in the dilution series that meets the test's criterion for growth inhibition. Low values mean a more susceptible organism, high ones a less susceptible organism.

One test has as its system Plasmodium falciparum. Put plainly: Antimalarial activity against Plasmodium falciparum. In kind it is functional, organism-based.
The subject of the next test is Staphylococcus aureus. In words: Antimicrobial activity against methicillin-resistant Staphylococcus aureus. In kind it is functional.
Another test relates to Enterococcus faecium. Put plainly: Antimicrobial activity against vancomycin-resistant Enterococcus faecium. In kind it is functional.
Another test deals with Candida albicans. In words: Antimicrobial activity against amphotericin B-resistant Candida albicans. In kind it is functional.
A further test concerns CCRF-CEM. In words: Anticancer activity against human CCRF-CEM cells. The format is functional, cell-based.
Another test has as its system SHP77. In words: Anticancer activity against human SHP77 cells. In kind it is functional, cell-based.

For `CC1=C2Cc3cc(ccc3O)C(=O)O[C@H](C(C)(C)Br)CC[C@](C)(O)[C@H](Br)CC[C@]2(C)[C@@H](Br)CC1`, the 50% inhibitory concentration (IC50) in the test on Plasmodium falciparum is 0.7 µM. Further, the MIC was 5.9 µM (≈ 3.93 µg/mL) against Staphylococcus aureus, 5.9 µM (≈ 3.93 µg/mL) in the test on Enterococcus faecium and 49 µM (≈ 32.6 µg/mL) against Candida albicans.

As to `CC1=C2Cc3cc(ccc3O)C(=O)O[C@H](C(C)(C)O)CC[C@]3(C)O[C@H]3C/C=C(\C)C2CC1` (some centres not stated), the IC50 in the test on Plasmodium falciparum is > 100 µM. Besides, the MIC in the test on Candida albicans was > 500 µM.

In the test with Plasmodium falciparum, `Cc1cc(O)c(C)c(CC[C@](C)(O)CCC[C@H](C)CCC[C@H](C)CCCC(C)C)c1O` showed an IC50 of 190 µM. The MIC in the test with Staphylococcus aureus and against Enterococcus faecium was > 500 µM in each case.

Take `Cc1cc(O)cc(CC[C@](C)(O)CCC[C@H](C)CCC[C@H](C)CCCC(C)C)c1O`: the values for the MIC in the test on Plasmodium falciparum, against Staphylococcus aureus and against Enterococcus faecium were 220 µM (≈ 92.5 µg/mL), > 500 µM and > 500 µM, respectively.

As to `CC1=CC(=O)C=C(CC[C@](C)(O)CCC[C@H](C)CCC[C@H](C)CCCC(C)C)C1=O`, in the test with Plasmodium falciparum, the IC50 amounted to 10 µM. For the same compound, the minimal inhibitory concentration (MIC) in the test on Staphylococcus aureus, in the test on Enterococcus faecium and in the test on Candida albicans was > 500 µM each time.

As to `CC(C)=CCC[C@@](C)(O)[C@@H]1CC/C(C)=C/CC/C(C)=C/Cc2cc(ccc2O)C(=O)O1` [CALLOPHYCOLIDE A], the half-inhibitory concentration (IC50) in the test with Plasmodium falciparum was determined as 5.2 µM; with CCRF-CEM, 7.5 µM; with SHP77, 9.2 µM. Also, the results for the MIC against Staphylococcus aureus, against Enterococcus faecium and with Candida albicans were 9.1 µM (≈ 3.88 µg/mL), 9.1 µM (≈ 3.88 µg/mL) and > 250 µM, respectively.
